The values that follow come from patent publication US20110028710A1, “PROCESS FOR THE RECOVERY OF HCL FROM A DILUTE SOLUTION THEREOF AND EXTRACTANT COMPOSITION FOR USE THEREIN” (HCL CLEANTECH LTD., priority 2008, published 2011).

For orientation: pKa means the pH at which an ionisable group is half protonated.

Data set [1] in a line: pH of 1N NaCl solution after contact with the organic acid (indirect acid strength test). The note with it: 1 mol acid at 0.2 molar or higher in organic solvent contacted with equivalent NaCl in 1N aqueous solution.
Excerpt: The stronger the organic acid, the more the reaction moves in the right direction and the lower is the pH of the formed aqueous solution.
For data set [2] the following is noted: analogous water-soluble acids of the prior-art strong acids; cited from earlier work.

Take `CCCCCCCCCCCC(=O)O` [Lauric, lauric acid]: the “pH of the sodium chloride solution” value in data set [1] is above 5.

For `O=C(O)c1c(Cl)ccc(Cl)c1C(=O)O` [3,6-dichlorophtalic], the pKa in data set [2] is reported as 1.46.
